The record followed here is patent US5578622A, “Isothiazole derivatives and their uses” (Asamura Patent Office, priority 1994, dated 1996).

Format in all cases: cell-based
The test system of test [1] is Candida albicans IFO 1270. Put plainly: In vitro antimycotic activity on Candida albicans. To be noted: IFO1270, 10 (ppm), SGB, 37° C., 48 hours, turbidity at 650 nm, read-out: Antimycotic activity (growth inhibitory rate), C.albicans. How it is done: 3-1 In vitro antimycotic activity on Candida albicans
Candida albicans IFO 1270 pre-cultured on a Sabouraud's glucose agar (SGA) plate medium at 37° C. […] was suspended in a sterilized physiological salt solution. The number of fungi in the resulting suspension was counted with a globulimeter, and adjusted so as to be 1×10^7 cell/ml with a sterilized physiological salt solution. This solution was used as an inoculum solution. Thereafter, 0.1 ml of this solution and 0.1 ml of a dimethyl sulfoxide (DMSO) solution of the test compound were added to 9.8 ml of Sabouraud's glucose broth (SGB), and shake-cultured at 37° C. for 48 hours. After culture, the medium turbidity was measured at 650 nm, and the growth-inhibitory rate of the fungus was calculated according to the following equation.
Growth inhibitory rate (%)=(1-W/Y)×100
Y: Medium turbidity of DMSO control group
W: Medium turbidity of test compound group
From this inhibitory rate, the antimycotic activity was shown by the symbols A to D. The test results of the test compounds are shown in Table 4.

For test [2], the system named is Aspergillus fumigatus TIMM 0063. The test is described as follows: In vitro antimycotic activity on Aspergillus fumigatus. To be noted: TIMM0063, 10 (ppm), Casitone agar, 37° C., 48 hours, read-out: Antimycotic activity (growth inhibitory rate), A.fumigatus. Here is the method: 3-2 In vitro antimycotic activity on Aspergillus fumigatus.
To Aspergillus fumigatus TIMM 0063 precultured at 37° C. for 48 hours on a potato dextrose agar (PDA) slant medium was added a sterilized physiological salt solution containing 0.1%(W/V) Tween 80. After conidia were made free from the solution, the solution was filtered through a sterilized two-sheet gauze to remove the mycelium mass. The number of the conidia in the resulting suspension was counted with a globulimeter and adjusted so as to be 1×10^5 conidia/ml with a sterilized physiological salt solution containing 0.1%(W/V) Tween 80. This solution was used as an inoculum solution. Casitone agar plate medium containing the DMSO solution of the test compound in a rate of 1% (V/V) was inoculated with the inoculum solution at four places thereof with a microplanter, and cultured with the medium allowed to stand at 37° C. for 48 hours. After culture, the diameter of the mycelium disks cultivated at the four inoculated parts was measured, and its mean value was obtained. The growth inhibitory rate was calculated according to the following equation, and the antimycotic activity was shown in the same manner as in Test Example 3-1.
Growth inhibitory rate (%)=(1-W'/Y')×100
Y': Diameter of mycelium disk of DMSO control group
W': Diameter of mycelium disk of test compound group

The test system of test [3] is Trichophyton mentagrophytes IFO 5810. The test is described as follows: In vitro antimicrobial activity on Trichophyton mentagrophytes. To be noted: 10 (ppm); SGB, 27° C., 7 days. More on the design: key: A: Fungus is not observed at all with the naked eye.; B: Presence of fungus is slightly observed on shaking the test tube.; C: Fungus of about less than one-fourth that of the DMSO control group is observed with the naked eye.; Fungus of about less than half that of the DMSO control group is observed with the naked eye. How it is done: 3-3 In vitro antimicrobial activity on Trichophyton mentagrophytes To Trichophyton mentagrophytes IFO 5810 precultured at 27° C. for 2 to 3 weeks on a Sabouraud's glucose agar (SGA) slant medium was added a sterilized physiological salt solution containing 0.1% (W/V) Tween 80. After conidia were made free from the solution, the solution was filtered through a sterilized two-sheet gauze to remove the mycelium mass. The number of the conidia in the resulting suspension was counted with a globulimeter and adjusted so as to be 1×10^6 conidia/ml with a sterilized physiological salt solution containing 0.1%(W/V) Tween 80. This solution was used as an inoculum solution. Thereafter, 0.1 ml of this solution and 0.1 ml of the dimethyl sulfoxide (DMSO) solution of the test compound were added to 9.8 ml of Sabouraud's glucose broth (SGB), and shake-cultured at 27° C. for 7 days.

Another test relates to Tyromyces palustris. Put plainly: Test for wood rotting-preventing effect (mycelium growth inhibition on malt extract agar). To be noted: 28° C.±2° C., 2 to 10 days, read-out: Rotting preventing effect (mycelium growth-inhibitory rate), TYP. How it is done:
(§1) The following fungi were cultured in agar media, respectively, and mycelial disks on the media were stamped out together with the agar using a cork borer of 4 mm in diameter. The resulting mycelial disks on agar were used as an inoculum. Each test compound of 50 ppm was added to a malt extract agar medium and added in parts to Petri dishes. The above prepared inoculum was put on the Petri dishes and cultured at 28° C.±2° C. Two to ten days after inoculation, the diameter of the mycelial disk of each fungus was measured, and the mycelium growth-inhibitory rate was obtained according to the following equation. [formula] The mycelium growth-inhibitory rate (%) is indicated by the following symbols as a fungicidal effect on each fungus, and the results are shown in Table 2. | TYP: Tyromyces palustris

Another test deals with Trichoderma viride. Described as above. To be noted: 28° C.±2° C., 2 to 10 days, read-out: Rotting preventing effect (mycelium growth-inhibitory rate), TRV. How it is done:
as §1, with “TRV: Trichoderma viride” for “TYP: Tyromyces palustris”

For another test, the system named is Aspergillus niger. The test is described as above. To be noted: 28° C.±2° C., 2 to 10 days, read-out: Rotting preventing effect (mycelium growth-inhibitory rate), ASN. How it is done: as §1, with “ASN: Aspergillus niger” for “TYP: Tyromyces palustris”
For another test, the system named is Rhizopus nigricans. Described as above. To be noted: Rhizopus stolonifer, 28° C.±2° C., 2 to 10 days, read-out: Rotting preventing effect (mycelium growth-inhibitory rate), RHN. How it is done:
as §1, with “RHN: Rhizopus nigricans” for “TYP: Tyromyces palustris”

Molecules are shown by their SMILES.

Consider `CCSc1snc(OCOC(C)(C)C#CI)c1C#N` [Compound 101], for which the inhibition of growth at 10 µg/mL in test [1] and in test [2] was 100% each time. Further, the “Antimycotic activity (degree of growth, naked eye), T.mentagrophytes” value (“Antimycotic activity” for short) in test [3] is given as “A”.

`CN1CCN(c2snc(OCC#CI)c2C#N)CC1` [Compound 36]: the inhibition at 50 ppm lay in the range of 95 to 100% in the test on Tyromyces palustris, 95 to 100% with Trichoderma viride, 80 to 94% with Aspergillus niger and 80 to 94% with Rhizopus nigricans. Besides, the inhibition of growth at 10 µg/mL in test [1] and in test [2] was 100% in each case. The “Antimycotic activity” value in test [3] is given as “A”.

As for `CC(C)Oc1nsc(OCCC#CI)c1C#N` [Compound 83], the inhibition of growth at 10 µg/mL in test [1] and in test [2] was 100% in each case. Moreover, in test [3], the “Antimycotic activity” value is “A”.

For the molecule `N#Cc1c(OCOCC#CI)nsc1SCOCC#CI` [Compound 141], the inhibition of growth at 10 µg/mL in test [1] and in test [2] was 100% throughout. Moreover, the “Antimycotic activity” value in test [3] is “A”.

In the case of `CC(C)Oc1nsc(SCOCC#CI)c1C#N` [Compound 56], the inhibition of growth at 10 µg/mL in test [1] and in test [2] was 100% in each case. Moreover, the “Antimycotic activity” value in test [3] is recorded as “A”.

With `CC(C#CI)OCOc1nsc(SC(F)F)c1C#N` (stereo not drawn) [Compound 111], the inhibition at 50 ppm with Tyromyces palustris, in the test on Trichoderma viride, in the test with Aspergillus niger and with Rhizopus nigricans was 95 to 100% in each case. In addition, the inhibition of growth at 10 µg/mL in test [1] and in test [2] was 100% in each case. Further, the “Antimycotic activity” value in test [3] was “A”.

As for `N#Cc1c(SC(F)F)nsc1SCOCC#CI` [Compound 138], the inhibition at 50 ppm in the test with Tyromyces palustris, with Trichoderma viride, with Aspergillus niger and in the test on Rhizopus nigricans was 95 to 100% each time. Moreover, the inhibition of growth at 10 µg/mL in test [1] and in test [2] was 100% in each case. Also, the “Antimycotic activity” value in test [3] is “A”.

As for `CC(OCC#CI)Oc1nsc(N(C)C)c1C#N` (stereo not drawn) [Compound 123], the inhibition of growth at 10 µg/mL in test [1] and in test [2] was 100% in each case. Moreover, the “Antimycotic activity” value in test [3] is on record as “A”.

As to `CCOCCSc1snc(OCC#CI)c1C#N` [Compound 16], the inhibition at 50 ppm is 95 to 100% in the test on Tyromyces palustris, 95 to 100% in the test on Trichoderma viride, 80 to 94% in the test on Aspergillus niger and 80 to 94% with Rhizopus nigricans. For the same molecule, the inhibition of growth at 10 µg/mL in test [1] and in test [2] was 100% throughout. In addition, the “Antimycotic activity” value in test [3] was “A”.

As for `CC(C)COc1snc(OCC#CI)c1C#N` [Compound 29], the inhibition of growth at 10 µg/mL in test [1] and in test [2] was 100% in each case. Besides, in test [3], the “Antimycotic activity” value is on record as “A”.

As for `CCOc1snc(OCC#CI)c1C#N` [Compound 22], the inhibition at 50 ppm with Tyromyces palustris, with Trichoderma viride, in the test with Aspergillus niger and in the test with Rhizopus nigricans was 95 to 100% each time. The inhibition of growth at 10 µg/mL in test [1] and in test [2] was 100% each time. Also, the “Antimycotic activity” value in test [3] is given as “A”.

For `C=CCOc1nsc(SCOCC#CI)c1C#N` [Compound 57], the inhibition at 50 ppm in the test on Tyromyces palustris, with Trichoderma viride, with Aspergillus niger and in the test on Rhizopus nigricans was 95 to 100% each time. The inhibition of growth at 10 µg/mL in test [1] and in test [2] was 100% each time. In test [3], the “Antimycotic activity” value is recorded as “A”.

In the case of `CC(C)Sc1snc(OCOCC#CI)c1C#N` [Compound 88], the inhibition of growth at 10 µg/mL in test [1] and in test [2] was 100% in each case. The “Antimycotic activity” value in test [3] was “A”.

On to `CCSc1snc(OCCC#CI)c1C#N` [Compound 71], for which the inhibition of growth at 10 µg/mL in test [1] and in test [2] was 100% throughout. Moreover, the “Antimycotic activity” value in test [3] was “A”.
